Article PMC10139140, “Synthesis of Novel 2-(Cyclopentylamino)thiazol-4(5H)-one Derivatives with Potential Anticancer, Antioxidant, and 11β-HSD Inhibitory Activities” (International Journal of Molecular Sciences, 2023)

Key:
[1] = tested on: human colon carcinoma (Caco-2); assay: MTS metabolic activity assay, Caco-2 cells; assay type: cell-based; details: Homo sapiens, 72 h, read-out: Cell metabolic activity (MTS), % of untreated control
In short: (§1)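 Cells seeded at 5 × 10^3 cells/0.32 cm^2 (BJ 2 × 10^3), 10% FBS (Caco-2 20%), 24 h, then exposed to compounds 72 h at 37 °C, 5% CO2. MTS added 3 h in the dark; absorbance at 590 and 620 nm, expressed as % of untreated controls (100%).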

glioma (U-118 MG) = assay: MTS metabolic activity assay, U-118 MG cells; assay type: cell-based; details: Homo sapiens, U-118-MG, U118-MG, 72 h, read-out: Cell metabolic activity (MTS), % of untreated control
In short: as §1

[2] = tested on: skin melanoma (SK-MEL-30); assay: MTS metabolic activity assay, SK-MEL-30 cells; assay type: cell-based; details: Homo sapiens, 72 h, read-out: Cell metabolic activity (MTS), % of untreated control
In short: as §1

[3] = tested on: human pancreatic carcinoma (PANC-1); assay: MTS metabolic activity assay, PANC-1 cells; assay type: cell-based; details: Homo sapiens, 72 h, read-out: Cell metabolic activity (MTS), % of untreated control
In short: as §1

[4] = tested on: human breast carcinoma (MDA-MB-231); assay: MTS metabolic activity assay, MDA-MB-231 cells; assay type: cell-based; details: Homo sapiens, 72 h, read-out: Cell metabolic activity (MTS), % of untreated control
In short: as §1

11β-HSD1 = molecular target: T1, 11β-HSD1 (Homo sapiens, UniProt P28845); assay: Inhibition of 11β-HSD1 (cortisone to cortisol, human liver microsomes, cortisol ELISA); assay type: biochemical
T1 construct: Human liver microsomes were used as a source of 11β-HSD1 enzyme; tissue XenoTech Lot No. 1410013; host or cells: pooled human liver microsomes, mixed gender
In short: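 Human liver microsomal conversion of cortisone to cortisol, incubated 2.5 h at 37 °C and stopped with 18β-glycyrrhetinic acid. Cortisol was quantified by ELISA against inhibitor-free controls.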

11β-HSD2 = molecular target: T2, 11β-HSD2 (Homo sapiens, UniProt P80365); assay: Inhibition of 11β-HSD2 (cortisol to cortisone, human microsomes, cortisol ELISA); assay type: biochemical; details: 2.5 h, 37 °C
T2 construct: Human liver microsomes were used as a source of 11β-HSD2 enzyme; tissue XenoTech Lot No. 1710160; host or cells: human kidney microsomes, mixed gender (method text says human liver microsomes)
T2 sequence (P80365 1-405): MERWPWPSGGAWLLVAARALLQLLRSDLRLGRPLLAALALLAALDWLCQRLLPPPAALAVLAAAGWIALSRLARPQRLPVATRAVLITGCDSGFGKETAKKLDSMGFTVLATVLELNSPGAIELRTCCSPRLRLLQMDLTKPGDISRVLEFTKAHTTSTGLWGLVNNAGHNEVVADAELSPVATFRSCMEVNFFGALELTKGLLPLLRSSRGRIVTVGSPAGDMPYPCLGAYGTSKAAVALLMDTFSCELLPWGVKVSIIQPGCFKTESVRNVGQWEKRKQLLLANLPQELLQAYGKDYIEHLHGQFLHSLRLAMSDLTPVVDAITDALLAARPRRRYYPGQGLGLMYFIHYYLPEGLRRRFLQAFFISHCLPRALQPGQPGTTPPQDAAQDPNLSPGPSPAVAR
Experimental: The resulting solution with a final volume of 100 µL was incubated for 2.5 h at 37 °C. […] The level of unreacted cortisol was measured by a commercially available ELISA kit.

BJ cells = assay: MTS metabolic activity assay, BJ cells; assay type: cell-based; details: Homo sapiens, 72 h, read-out: Cell metabolic activity (MTS), % of untreated control
In short: as §1

T1 sequence (P28845 whole entry): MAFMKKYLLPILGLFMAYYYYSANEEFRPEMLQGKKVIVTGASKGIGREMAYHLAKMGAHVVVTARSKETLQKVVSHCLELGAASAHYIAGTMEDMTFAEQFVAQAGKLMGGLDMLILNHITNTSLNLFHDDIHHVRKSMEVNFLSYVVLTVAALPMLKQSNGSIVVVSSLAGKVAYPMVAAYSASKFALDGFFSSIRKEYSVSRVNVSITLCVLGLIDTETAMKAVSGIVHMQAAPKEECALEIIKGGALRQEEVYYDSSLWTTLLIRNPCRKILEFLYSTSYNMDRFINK

With `CC1SC(NC2CCCC2)=NC1=O` (stereo not drawn) [Compound 3a, 2-(cyclopentylamino)-5-methylthiazol-4(5H)-one] the viability at 10 µM ([1]; Caco-2, 10 µM) was 86.2%, the viability at 20 µM ([1]; Caco-2, 20 µM) was 92.8% and the viability at 50 µM ([1]; Caco-2, 50 µM) was 82.6%. For the same compound, the viability at 100 µM ([1]; Caco-2, 100 µM) was 81.6%, the viability at 200 µM ([1]; Caco-2, 200 µM) was 76.9% and the viability at 300 µM ([1]; Caco-2, 300 µM) was 75.5%. It also gave a viability at 500 µM ([1]; Caco-2, 500 µM) of 66.8%, a viability at 10 µM (glioma (U-118 MG); 10 µM) of 111% and a viability at 20 µM (glioma (U-118 MG); 20 µM) of 109%. The viability at 50 µM (glioma (U-118 MG); 50 µM) was 113%, the viability at 100 µM (glioma (U-118 MG); 100 µM) was 110% and the viability at 200 µM (glioma (U-118 MG); 200 µM) was 110%. For the same compound, the viability at 300 µM (glioma (U-118 MG); 300 µM) was 110%, the viability at 500 µM (glioma (U-118 MG); 500 µM) was 105% and the viability at 10 µM ([2]; SK-MEL-30, 10 µM) was 104%. For the same compound, the viability at 20 µM ([2]; SK-MEL-30, 20 µM) was 102%, the viability at 50 µM ([2]; SK-MEL-30, 50 µM) was 102% and the viability at 100 µM ([2]; SK-MEL-30, 100 µM) was 106%. It also gave a viability at 200 µM ([2]; SK-MEL-30, 200 µM) of 103%, a viability at 300 µM ([2]; SK-MEL-30, 300 µM) of 101% and a viability at 500 µM ([2]; SK-MEL-30, 500 µM) of 97.6%. It also gave a viability at 10 µM ([3]; PANC-1, 10 µM) of 99.7%, a viability at 20 µM ([3]; PANC-1, 20 µM) of 104% and a viability at 50 µM ([3]; PANC-1, 50 µM) of 106%. The viability at 100 µM ([3]; PANC-1, 100 µM) was 107%, the viability at 200 µM ([3]; PANC-1, 200 µM) was 110% and the viability at 300 µM ([3]; PANC-1, 300 µM) was 106%. It also gave a viability at 500 µM ([3]; PANC-1, 500 µM) of 104%, a viability at 10 µM ([4]; MDA-MB-231, 10 µM) of 105% and a viability at 20 µM ([4]; MDA-MB-231, 20 µM) of 107%. The viability at 50 µM ([4]; MDA-MB-231, 50 µM) was 103%, the viability at 100 µM ([4]; MDA-MB-231, 100 µM) was 105% and the viability at 200 µM ([4]; MDA-MB-231, 200 µM) was 104%. The viability at 300 µM ([4]; MDA-MB-231, 300 µM) was 93.6%, the viability at 500 µM ([4]; MDA-MB-231, 500 µM) was 89.8% and the IC50 (11β-HSD1) was over 10 µM. It also gave an inhibition at 10 µM (11β-HSD1; 10 µM, 2.5 h, 37 °C) of 10.9 ± 4.08%, an inhibition at 10 µM (11β-HSD2) of 40.3 ± 0.65% and a viability at 10 µM (BJ cells; 10 µM) of 95.9%. For the same compound, the viability at 20 µM (BJ cells; 20 µM) was 98.4%, the viability at 50 µM (BJ cells; 50 µM) was 102% and the viability at 100 µM (BJ cells; 100 µM) was 112%. For the same compound, the viability at 200 µM (BJ cells; 200 µM) was 109%, the viability at 300 µM (BJ cells; 300 µM) was 109% and the viability at 500 µM (BJ cells; 500 µM) was 110%.
